# How the values were obtained:
# [1] = target: human DNMT1 (Homo sapiens (Human), UniProt P26358); assay: DNMT1 enzyme activity assay (TR-FRET, EPIgeneous methyltransferase assay); format: biochemical; conditions: 15 minutes at 37° C.
# Protocol: DNMT1 Enzyme Activity Assay
# The biochemical assay to measure DNMT1 enzyme activity relies on time-resolved fluorescence energy transfer (TR-FRET) between lumi4-Tb (donor) and d2 (acceptor) using the EPlgeneous methyltransferase assay (CisBio Cat#62SAHPEB). TR-FRET is observed when antibody specific to S-adenosylhomocysteine labeled with Lumi4-Tb is incubated with d2-labeled S-adenosylhomocysteine. TR-FRET signal is inversely proportional to the concentration of SAH, product of DNMT1 enzyme activity, in the sample. The human DNMT1 was obtained from Reaction Biology Corp. (Cat# DMT-21-124).
# Enzyme activity assay was carried out in a white 384-well plate in a final volume of 20 μl, as follow: • 4 μl of vehicle or studied compound 2.5× concentrated prepared in assay buffer (50 mM Tris-HCl, 1 mM EDTA, 1 mM DTT, 0.1% Triton X-100, 5% glycerol pH 7.5). Final percentage of DMSO was 0.5%. • 2 μl of […] DNMT1 enzyme diluted in assay buffer. Final concentration was 20 nM. • Start the reaction by adding 4 μl of substrate mixture containing 1 μM S-adenosylmethionine and 1 μM poly-deoxy inosine poly-deoxy cytosine (pdI-pdC) DNA. • Reaction was carried out during 15 minutes at 37° C. • Enzyme activity was stopped by adding 2 μl of buffer one of the EPIgeneous methyltransferase assay. • After 10 minutes at room temperature, it was added 4 μl of antibody specific to S-adenosylhomocysteine labeled with Lumi4-Tb 50× diluted in buffer two of the EPIgeneous methyltransferase assay. • Add 4 μl of d2-labeled S-adenosylhomocysteine 31× diluted in buffer two of the EPIgeneous methyltransferase assay. • Read the plate after 1 hour of incubation at room temperature.
# (§1) For each well, fluorescence was measured at 620 nm and 665 nm. A ratio (665 nm/620 nm) was then calculated in order to minimize medium interferences. Positive control was obtained in the presence of the vehicle of the compounds. Negative control was obtained in the absence of G9a enzyme activity. Calculated IC50 values were determined using GraphPrism using 4-parameters inhibition curve.
# [2] = target: human G9a enzyme (Homo sapiens (Human), UniProt Q96KQ7); assay: G9a enzyme activity assay (TR-FRET); format: biochemical; conditions: 1 hour at room temperature
# Protocol: G9a Enzyme Activity Assay
# The biochemical assay to measure G9a enzyme activity relies on time-resolved fluorescence energy transfer (TR-FRET) between europium cryptate (donor) and XL665 (acceptor). TR-FRET is observed when biotinylated histone monomethyl-H3K9 peptide is incubated with cryptate-labeled anti-dimethyl-histone H3K9 antibody (CisBio Cat#61KB2KAE) and streptavidin XL665 (CisBio Cat#610SAXLA), after enzymatic reaction of G9a.
# The human G9a enzyme expressed in a baculovirus infected Sf9 cell expression system was obtained from BPS Biosciences (Cat. #51001). Enzyme activity assay was carried out in a white 384-well plate in a final volume of 20 μl, as follow: • 4 μl of vehicle or studied compound 2.5× concentrated prepared in assay buffer (50 mM Tris-HCl, 10 mM NaCl, 4 mM DTT, 0.01% Tween-20 pH9). Final percentage of DMSO was 0.5%. • 2 μl of 1 nM G9a enzyme diluted in assay buffer. Final concentration was 0.2 nM. • Start the reaction by adding 4 μl of substrate mixture containing 20 μM S-adenosylmethionine and 40 nM biotinylated histone monomethyl-H3K9 peptide. • Reaction was carried out during 1 hour at room temperature. • Enzyme activity was stopped by adding 5 μl of cryptate-labeled anti-dimethyl-histone H3K9 antibody. Final concentration 150 nM. • Then, add 5 μl of streptavidin XL665 beads. Final concentration of 16 μM. • Read the plate after 1 hour of incubation at room temperature.
# as §1
# [3] = test system: CEMO-1 cells (acute lymphocytic leukemia, ALL); assay: Cell proliferation assay (CellTiter 96 Aqueous One), CEMO-1; format: cell-based; conditions: CEMO-1 (ALL), 48 hours of treatment
# Protocol: (§2) Cell proliferation was analyzed after 48 hours of in vitro treatment using the CellTiter 96 Aqueous One Solution Cell Proliferation Assay (Promega, Madison, W). This is a colorimetric method for determining the number of viable cells in proliferation.
# (§3) For the assay, suspension cells were cultured by triplicate at a density of 1×10^6 cells/ml in 96-well plates (100.000 cells/well, 100 μl/well), except for OCI-Ly3 and OCI-Ly10 cell lines which were cultured at a density of 0.5×10^6 cells/ml (50,000 cells/well, 100 μl/well) and for HepG2, Hep3B and PLC/PRF/5 cell lines which were cultured at a density of 3000 cells/well, 100 μl/well). Adherent cells were obtained from 80-90% confluent flasks and 100 μl of cells were seeded at a density of 5000 cells/well in 96-well plates by triplicate. Before addition of the compounds, adherent cells were allowed to attach to the bottom of the wells for 12 hours. In all cases, only the 60 inner wells were used to avoid any border effects.
# (§4) After 48 hours of treatment, plates with suspension cells were centrifuged at 800 g for 10 minutes and medium was removed. The plates with adherent cells were flicked to remove medium. Then, cells were incubated with 100 μl/well of medium and 20 μl/well of CellTiter 96 Aqueous One Solution reagent. After 1-3 hours of incubation at 37° C., absorbance was measured at 490 nm in a 96-well plate reader. The background absorbance was measured in wells with only cell line medium and solution reagent. Data was calculated as a percentage of total absorbance of treated cell/absorbance of non treated cells.
# (§5) These cancer cell lines and primary cultures correspond to acute lymphocytic leukemia (ALL), CEMO-1, to activated B-cell-like diffuse large B-cell lymphoma (ABC-DLBCL), OCI-Ly3 and OCI-Ly10 and to hepatocellular carcinoma cells (HCC), HepG2, Hep3B and PLC/PRF/5.
# [4] = test system: Hep3B cells (hepatocellular carcinoma); assay: Cell proliferation assay (CellTiter 96 Aqueous One), Hep3B; format: cell-based; conditions: Homo sapiens; Hep3B (HCC), 48 hours of treatment
# Protocol: as §2, §3, §4, §5
# [5] = test system: HepG2 cells (hepatocellular carcinoma); assay: Cell proliferation assay (CellTiter 96 Aqueous One), HepG2; format: cell-based; conditions: Homo sapiens; HepG2 (HCC), 48 hours of treatment
# Protocol: as §2, §3, §4, §5
# Sequence of human G9a enzyme (Q96KQ7 whole entry): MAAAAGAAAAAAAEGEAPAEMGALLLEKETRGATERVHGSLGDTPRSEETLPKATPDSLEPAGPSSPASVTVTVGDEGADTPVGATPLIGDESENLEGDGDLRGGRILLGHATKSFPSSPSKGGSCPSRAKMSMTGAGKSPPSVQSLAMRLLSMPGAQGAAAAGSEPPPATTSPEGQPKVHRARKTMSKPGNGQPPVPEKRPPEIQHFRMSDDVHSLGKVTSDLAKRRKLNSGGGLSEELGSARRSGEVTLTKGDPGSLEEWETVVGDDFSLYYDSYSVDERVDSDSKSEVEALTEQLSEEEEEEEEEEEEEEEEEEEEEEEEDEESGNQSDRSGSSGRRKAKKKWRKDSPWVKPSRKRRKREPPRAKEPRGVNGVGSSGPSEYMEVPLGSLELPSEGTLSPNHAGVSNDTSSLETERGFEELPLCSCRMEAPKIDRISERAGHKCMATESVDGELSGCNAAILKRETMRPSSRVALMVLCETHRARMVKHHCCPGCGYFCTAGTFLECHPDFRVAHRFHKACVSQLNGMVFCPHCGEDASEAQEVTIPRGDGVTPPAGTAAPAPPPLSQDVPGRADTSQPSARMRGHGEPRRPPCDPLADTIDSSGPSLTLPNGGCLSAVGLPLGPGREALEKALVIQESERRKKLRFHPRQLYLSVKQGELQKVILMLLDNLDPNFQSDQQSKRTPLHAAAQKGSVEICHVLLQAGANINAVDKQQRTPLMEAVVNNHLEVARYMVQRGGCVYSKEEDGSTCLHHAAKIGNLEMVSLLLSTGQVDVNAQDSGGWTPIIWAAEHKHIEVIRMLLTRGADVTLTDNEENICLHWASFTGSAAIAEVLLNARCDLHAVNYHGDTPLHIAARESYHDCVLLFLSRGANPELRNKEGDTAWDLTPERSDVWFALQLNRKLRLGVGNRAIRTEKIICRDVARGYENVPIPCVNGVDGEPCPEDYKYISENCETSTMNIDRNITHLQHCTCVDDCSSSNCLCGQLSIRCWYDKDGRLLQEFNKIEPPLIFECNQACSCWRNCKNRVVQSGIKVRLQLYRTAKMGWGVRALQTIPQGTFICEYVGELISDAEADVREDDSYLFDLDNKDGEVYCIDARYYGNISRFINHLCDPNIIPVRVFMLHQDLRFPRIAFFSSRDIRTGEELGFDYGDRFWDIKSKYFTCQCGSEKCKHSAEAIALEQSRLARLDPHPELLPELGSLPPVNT
# Sequence of human DNMT1 (P26358 whole entry): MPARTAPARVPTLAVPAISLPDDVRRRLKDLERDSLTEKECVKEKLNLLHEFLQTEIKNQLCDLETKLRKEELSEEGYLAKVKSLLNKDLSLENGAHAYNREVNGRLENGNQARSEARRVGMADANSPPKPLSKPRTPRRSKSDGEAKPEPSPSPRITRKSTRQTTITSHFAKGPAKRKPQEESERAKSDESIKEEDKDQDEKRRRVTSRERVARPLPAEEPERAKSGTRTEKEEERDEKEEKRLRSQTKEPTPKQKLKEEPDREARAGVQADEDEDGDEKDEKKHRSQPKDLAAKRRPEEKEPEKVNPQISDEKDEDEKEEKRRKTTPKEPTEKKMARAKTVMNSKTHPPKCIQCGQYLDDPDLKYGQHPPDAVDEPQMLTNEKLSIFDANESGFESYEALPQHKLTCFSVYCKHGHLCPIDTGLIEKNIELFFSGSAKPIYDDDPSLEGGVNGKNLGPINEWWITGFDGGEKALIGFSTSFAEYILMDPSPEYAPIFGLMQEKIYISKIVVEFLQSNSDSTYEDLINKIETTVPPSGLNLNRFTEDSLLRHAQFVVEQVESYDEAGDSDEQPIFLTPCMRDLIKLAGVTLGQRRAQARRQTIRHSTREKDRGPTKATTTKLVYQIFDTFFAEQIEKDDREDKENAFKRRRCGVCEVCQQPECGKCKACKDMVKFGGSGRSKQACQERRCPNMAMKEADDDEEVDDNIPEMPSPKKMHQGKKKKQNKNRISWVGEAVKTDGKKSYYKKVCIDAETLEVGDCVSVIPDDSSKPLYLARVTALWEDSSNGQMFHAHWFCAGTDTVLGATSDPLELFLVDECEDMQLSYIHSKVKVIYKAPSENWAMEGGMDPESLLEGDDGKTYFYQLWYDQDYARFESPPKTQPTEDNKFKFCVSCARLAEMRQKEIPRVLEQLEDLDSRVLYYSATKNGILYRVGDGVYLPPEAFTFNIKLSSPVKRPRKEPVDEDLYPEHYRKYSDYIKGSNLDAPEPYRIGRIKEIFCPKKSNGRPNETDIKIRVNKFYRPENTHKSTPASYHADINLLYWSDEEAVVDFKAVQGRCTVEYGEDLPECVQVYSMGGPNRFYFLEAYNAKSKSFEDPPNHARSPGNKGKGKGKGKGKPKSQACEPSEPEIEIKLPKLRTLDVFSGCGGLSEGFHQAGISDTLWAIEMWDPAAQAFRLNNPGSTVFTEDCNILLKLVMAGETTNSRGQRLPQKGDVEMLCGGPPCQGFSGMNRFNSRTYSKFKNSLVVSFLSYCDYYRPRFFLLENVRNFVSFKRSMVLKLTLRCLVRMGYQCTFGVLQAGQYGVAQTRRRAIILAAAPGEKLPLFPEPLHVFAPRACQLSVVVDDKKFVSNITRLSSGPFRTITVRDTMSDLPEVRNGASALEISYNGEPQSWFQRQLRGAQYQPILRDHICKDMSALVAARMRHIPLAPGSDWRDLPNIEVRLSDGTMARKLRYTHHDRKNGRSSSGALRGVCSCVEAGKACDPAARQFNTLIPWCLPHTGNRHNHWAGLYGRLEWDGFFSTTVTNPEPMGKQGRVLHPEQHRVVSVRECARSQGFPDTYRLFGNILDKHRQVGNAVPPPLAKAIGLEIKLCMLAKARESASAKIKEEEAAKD
Structure (SMILES),IC50 [1] [nM],IC50 [2] [nM],GI50 [3] [nM],GI50 [4] [nM],GI50 [5] [nM]
"COc1cc2c3c(c(-c4ccc(C)o4)nc2cc1OCCCN1CCCC1)CC[C@H](CC1CCN(C)CC1)N3 (single isomer, unassigned) [Compound 2-09]",500 to 1000,< 100,,,
"COc1cc2c3c(c(-c4ccc(C)o4)nc2cc1OCCCN1CCCC1)CC[C@@H](CC1CCN(C)CC1)N3 (single isomer, unassigned) [Compound 2-10]",500 to 1000,< 100,,,
COc1cc2c(cc1OCCCN1CCCC1)nc(-c1ccccc1)c1cc(CC3CCN(C)CC3)[nH]c12 [Compound 1-05],500 to 1000,100 to 500,,,
COc1cc2c(cc1OCCCN1CCCC1)nc(-c1cc(C)oc1C)c1cc(CC3CCN(C)CC3)[nH]c12 [Compound 1-06],1000 to 10000,500 to 1000,,,
"COc1ccc2c3c(c(-c4ccc(C)o4)nc2c1)CCCN3 [Compound 2-01, 8-methoxy-5-(5-methyl-2-furyl)-1,2,3,4-tetrahydrobenzo[h][1,6]naphthyridine]",1000 to 10000,> 10000,,,
"Cc1ccc(-c2nc3cc(OCCCN4CCCC4)ccc3c3c2CCCN3)o1 [Compound 2-02, 5-(5-methyl-2-furyl)-8-(3-pyrrolidin-1-ylpropoxy)-1,2,3,4-tetrahydrobenzo[h][1,6]naphthyridine]",500 to 1000,1000 to 10000,,,
"COc1cc2c3c(c(-c4ccc(C)o4)nc2cc1OCCCN1CCCC1)CCCN3 [Compound 2-03, 9-methoxy-5-(5-methyl-2-furyl)-8-(3-pyrrolidin-1-ylpropoxy)-1,2,3,4-tetrahydrobenzo[h][1,6]naphthyridine]",1000 to 10000,< 100,1000 to 10000,,
"COc1cc2c3c(c(-c4ccc(C)o4)nc2cc1OCCCN1CCCC1)CCCN3CCCN1CCCC1 [Compound 2-04, 9-methoxy-5-(5-methyl-2-furyl)-8-(3-pyrrolidin-1-ylpropoxy)-1-(3-pyrrolidin-1-ylpropyl)-3,4-dihydro-2H-benzo[h][1,6]naphthyridine]",500 to 1000,> 10000,,,
"COc1cc2c3c(c(-c4ccc(C)o4)nc2cc1OCCCN1CCCC1)CCC(CC1CCNCC1)N3 (stereo not drawn) [Compound 2-05, 9-methoxy-5-(5-methyl-2-furyl)-2-(4-piperidylmethyl)-8-(3-pyrrolidin-1-ylpropoxy)-1,2,3,4-tetrahydrobenzo[h][1,6]naphthyridine]",500 to 1000,< 100,,,
"COc1cc2c3c(c(-c4ccc(C)o4)nc2cc1OCCCN1CCCC1)CCC(CC1CCN(C(C)=O)CC1)N3 (stereo not drawn) [Compound 2-11, 1-[4-[[9-methoxy-5-(5-methyl-2-furyl)-8-(3-pyrrolidin-1-ylpropoxy)-1,2,3,4-tetrahydrobenzo[h][1,6]naphthyridin-2-yl]methyl]-1-piperidyl]ethanone]",1000 to 10000,< 100,,,
"COc1cc2c3c(c(-c4ccc(C)o4)nc2cc1OCCCN1CCCC1)CCC(CC1CCN(C2CCCCC2)CC1)N3 (stereo not drawn) [Compound 2-12, 2-[(1-cyclohexyl-4-piperidyl)methyl]-9-methoxy-5-(5-methyl-2-furyl)-8-(3-pyrrolidin-1-ylpropoxy)-1,2,3,4-tetrahydrobenzo[h][1,6]naphthyridine]",500 to 1000,< 100,100 to 1000,100 to 1000,100 to 1000
"COc1cc2c3c(c(-c4cc(C)oc4C)nc2cc1OCCCN1CCCC1)CCC(CC1CCN(C)CC1)N3 (stereo not drawn) [Compound 2-13, 9-methoxy-5-(2,5-dimethyl-3-furyl)-2-[(1-methyl-4-piperidyl)methyl]-8-(3-pyrrolidin-1-ylpropoxy)-1,2,3,4-tetrahydrobenzo[h][1,6]naphthyridine]",1000 to 10000,< 100,,,
"COc1cc2c(cc1OCCCN1CCCC1)nc(-c1ccc(C)o1)c1cccnc12 [Compound 3-01, 9-methoxy-5-(5-methyl-2-furyl)-8-(3-pyrrolidin-1-ylpropoxy)benzo[h]-[1,6]naphthyridine]",1000 to 10000,1000 to 10000,,,
"COc1cc2c(cc1OCCCN1CCCC1)nc(-c1ccc(C)o1)c1ccc(CC3CCNCC3)nc12 [Compound 3-02, 9-methoxy-5-(5-methyl-2-furyl)-2-(4-piperidylmethyl)-8-(3-pyrrolidin-1-ylpropoxy)benzo[h][1,6]naphthyridine]",500 to 1000,100 to 500,,,
"COc1cc2c(cc1OCCCN1CCCC1)nc(-c1ccc(C)o1)c1ccc(CC3CCN(C)CC3)nc12 [Compound 3-03, 9-methoxy-5-(5-methyl-2-furyl)-2-[(1-methyl-4-piperidyl)methyl]-8-(3-pyrrolidin-1-ylpropoxy)benzo[h][1,6]naphthyridine]",1000 to 10000,< 100,,,
"COc1cc2c(cc1OCCCN1CCCC1)nc(-c1cc(C)oc1C)c1ccc(CC3CCN(C)CC3)nc12 [Compound 3-04, 9-methoxy-5-(2,5-dimethyl-3-furyl)-2-[(1-methyl-4-piperidyl)methyl]-8-(3-pyrrolidin-1-ylpropoxy)benzo[h][1,6-]naphthyridine]",> 10000,100 to 500,,,
"COc1cc2c(cc1OCCCN1CCCC1)nc(-c1ccc(C)o1)c1c(=O)n(C3CCN(C)CC3)[nH]c12 [Compound 4-03, 8-methoxy-4-(5-methyl-2-furyl)-2-(1-methyl-4-piperidyl)-7-(3-pyrrolidin-1-ylpropoxy)-1H-pyrazolo[4,3-c]quinolin-3-one]",1000 to 10000,> 10000,,,
"COc1cc2c(cc1OCCCN1CCCC1)nc(-c1ccc(C)o1)c1c(=O)n(CC3CCN(C)CC3)[nH]c12 [Compound 4-04, 8-methoxy-4-(5-methyl-2-furyl)-2-[(1-methyl-4-piperidyl)methyl]-7-(3-pyrrolidin-1-ylpropoxy)-1H-pyrazolo[4,3-c]quinolin-3-one]",1000 to 10000,> 10000,,,
"COc1cc2c(cc1OCCCN1CCCC1)nc(-c1ccc(C)o1)c1c(=O)n(CC3CCN(C)CC3)n(CC3CCN(C)CC3)c12 [Compound 4-05, 8-methoxy-4-(5-methyl-2-furyl)-1,2-bis[(1-methyl-4-piperidyl)methyl]-7-(3-pyrrolidin-1-ylpropoxy)pyrazolo[4,3-c]quinolin-3-one]",1000 to 10000,> 10000,,,

# From patent publication US10407423B2, “Compounds as inhibitors of DNA methyltransferases” (FUNDACIÓN PARA LA INVESTIGACIÓN MÉDICA APLICADA, priority 2015, dated 2019)
